Experimental data reported in patent US8329686B2, “Isatin analogues and uses therefor” (Washington University, priority 2006, dated 2012).
Where two headings read alike, the source gives them in different places. Residues, ends and D or L forms follow the SMILES beside them.

Tests used:
Format in all cases: biochemical
caspase 1 = biological target: T1, caspase 1 (Homo sapiens, UniProt P29466); assay: Enzyme inhibition assay, caspase 1 (fluorogenic Ac-YVAD-AMC)
T1 construct: purchased BIOMOL Research Laboratories (Plymouth Meeting, Pa.)
T1 sequence (P29466 120-297 limits assumed): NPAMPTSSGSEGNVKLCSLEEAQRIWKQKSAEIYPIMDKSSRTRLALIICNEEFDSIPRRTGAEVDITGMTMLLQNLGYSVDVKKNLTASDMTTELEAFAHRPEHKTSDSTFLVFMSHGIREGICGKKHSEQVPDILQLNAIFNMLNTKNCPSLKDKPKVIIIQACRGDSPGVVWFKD
T1 sequence (P29466 317-404 limits assumed): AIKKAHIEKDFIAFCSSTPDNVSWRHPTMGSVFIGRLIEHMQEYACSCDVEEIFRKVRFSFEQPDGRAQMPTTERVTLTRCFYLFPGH

caspase-3 = biological target: T2, caspase-3 (Homo sapiens, UniProt P42574); assay: Enzyme inhibition assay, caspase 3 (fluorogenic Ac-DEVD-AMC)
T2 construct: purchased Sigma-Aldrich (St. Louis, Mo.)
T2 sequence (P42574 29-175 limits assumed): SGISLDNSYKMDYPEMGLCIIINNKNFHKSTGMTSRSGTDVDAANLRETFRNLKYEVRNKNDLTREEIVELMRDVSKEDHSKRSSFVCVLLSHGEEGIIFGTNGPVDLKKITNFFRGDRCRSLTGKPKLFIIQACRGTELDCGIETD
T2 sequence (P42574 176-277 limits assumed): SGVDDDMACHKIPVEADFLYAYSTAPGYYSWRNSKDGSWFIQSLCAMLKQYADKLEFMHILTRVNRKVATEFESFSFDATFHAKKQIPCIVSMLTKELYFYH
Experimental: (§1) Enzyme Assays. Inhibition of recombinant human caspase-3 and other caspases by the isatin analogues was assessed using a fluorometric assay by measuring the accumulation of a fluorogenic product, 7-amino-4-methylcoumarin (7-AMC).
(§2) Enzyme Inhibition Assays. Recombinant human caspases (3, 6, 7, and 8) and their peptide-specific substrates (Ac-DEVDAMC, Ac-VEID-AMC, Ac-DEVD-AMC, and Ac-IETD-AMC, respectively) were purchased from Sigma-Aldrich (St. Louis, Mo.) with the exception of caspase 1 and its substrate (Ac-YVAD-AMC), which were obtained from BIOMOL Research Laboratories (Plymouth Meeting, Pa.). The enzymatic activity of caspases was determined by measuring the accumulation of the fluorogenic product 7-amino-4-methylcoumarin (AMC). All assays were prepared in 96-well format at a volume of 210 μL per well and consisted of 100 mM Na+ HEPES (pH 7.4), 10% sucrose, 100 mM NaCl, 0.1% CHAPS, 5 mM 2-mercaptoethanol, 2 mM EDTA, 10 μM Ac-YVAD-AMC (caspase 1); 20 mMNa^+ HEPES (pH 7.4), 10% sucrose, 100 mMNaCl, 0.1% CHAPS, 2 mM EDTA, 10 μM Ac-DEVD-AMC (caspase 3); 20 mM Na^+ HEPES (pH 7.4), 10% sucrose, 100 mM NaCl, 0.1% CHAPS, 2 mM EDTA, 10 μM Ac-VEID-AMC (caspase 6); 20 mM Na+ HEPES (pH 7.4), 100 mM NaCl, 10% sucrose, 0.1% CHAPS, 5 mM 2-mercaptoethanol, 2 mM EDTA, 10 μM Ac-DEVD-AMC (caspase 7); 20 mM Na+ HEPES (pH 7.4), 10% sucrose, 100 mM NaCl, 0.1% CHAPS, 2 mM EDTA, 10 μM Ac-IETD-AMC (caspase 8).
(§3) Recombinant caspases were first assayed to determine the optimal concentration for each experiment. Optimal concentrations were based in the linear range of the enzyme activation curves. Peptide inhibitors with known IC50 values were tested together with the compounds as a control for each caspase assay. […] Peptide and nonpeptide inhibitors were dissolved in DMSO, and a 2 serial dilution was performed prior to screening in order to obtain desired concentrations. 10 μL was added to each well containing 100 μL caspase solution and allowed to incubate on ice for 30 min. […] The final concentration of DMSO in all wells was 5% of the total volume. In caspase-1 and caspase-7 assays, 10 mM 2-mercaptoethanol was added to the substrate solution for full activation of the enzymes.
(§4) Compounds were tested in duplicate, and IC50 curves were calculated for all inhibitors assayed. Final IC50s were the average of three independent experiments.

caspase 7 = biological target: T3, caspase 7 (Homo sapiens, UniProt P55210); assay: Enzyme inhibition assay, caspase 7 (fluorogenic Ac-DEVD-AMC)
T3 construct: purchased Sigma-Aldrich (St. Louis, Mo.)
T3 sequence (P55210 24-198 limits assumed): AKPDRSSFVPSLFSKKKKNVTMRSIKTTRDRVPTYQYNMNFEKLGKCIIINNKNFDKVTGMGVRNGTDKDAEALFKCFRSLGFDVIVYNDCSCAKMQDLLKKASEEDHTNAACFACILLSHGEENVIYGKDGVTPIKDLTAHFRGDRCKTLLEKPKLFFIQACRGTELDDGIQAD
T3 sequence (P55210 207-303 limits assumed): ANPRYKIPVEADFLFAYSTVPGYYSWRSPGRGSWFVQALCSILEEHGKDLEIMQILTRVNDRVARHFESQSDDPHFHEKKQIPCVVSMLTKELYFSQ

caspase 6 = biological target: T4, caspase 6 (Homo sapiens, UniProt P55212); assay: Enzyme inhibition assay, caspase 6 (fluorogenic Ac-VEID-AMC)
T4 construct: purchased Sigma-Aldrich (St. Louis, Mo.)
T4 sequence (P55212 24-179 limits assumed): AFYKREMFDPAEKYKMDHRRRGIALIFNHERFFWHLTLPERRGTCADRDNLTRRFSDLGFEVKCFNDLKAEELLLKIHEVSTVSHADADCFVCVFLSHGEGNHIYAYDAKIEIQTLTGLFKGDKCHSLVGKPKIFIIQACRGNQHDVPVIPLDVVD
T4 sequence (P55212 194-293 limits assumed): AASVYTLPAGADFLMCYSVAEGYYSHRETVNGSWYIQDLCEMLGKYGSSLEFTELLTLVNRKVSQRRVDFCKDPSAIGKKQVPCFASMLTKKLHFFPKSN
Experimental: as §1, §2, §3, §4

caspase 8 = biological target: T5, caspase 8 (Homo sapiens, UniProt Q14790); assay: Enzyme inhibition assay, caspase 8 (fluorogenic Ac-IETD-AMC)
T5 construct: purchased Sigma-Aldrich (St. Louis, Mo.)
Experimental: as §1, §2, §3, §4

[1] = Table 4, read-out: IC50 (nM) caspase-3
[2] = Table 4, read-out: IC50 (nM) caspase-7
[3] = Table 2, read-out: IC50 (nM) Caspase 1
[4] = Table 7, read-out: IC50 (nM) Casp-1
[5] = Table 2, read-out: IC50 (nM) Caspase 3
[6] = Table 7, read-out: IC50 (nM) Casp-3
[7] = Table 2, read-out: IC50 (nM) Caspase 7
[8] = Table 7, read-out: IC50 (nM) Casp-7
[9] = Table 2, read-out: IC50 (nM) Caspase 6
[10] = Table 7, read-out: IC50 (nM) Casp-6
[11] = Table 2, read-out: IC50 (nM) Caspase 8
[12] = Table 7, read-out: IC50 (nM) Casp-8
[13] = Table 1, read-out: IC50 (nM) Caspase 8
[14] = Table 1, read-out: IC50 (nM) Caspase 7
[15] = Table 6, read-out: IC50 (nM) caspase-1
[16] = Table 6, read-out: IC50 (nM) caspase-3
[17] = Table 6, read-out: IC50 (nM) caspase-7
[18] = Table 6, read-out: IC50 (nM) caspase-6
[19] = Table 1, read-out: IC50 (nM) Caspase 1
[20] = Table 1, read-out: IC50 (nM) Caspase 3
[21] = Table 1, read-out: IC50 (nM) Caspase 6

T5 sequence (Q14790 217-374 limits assumed): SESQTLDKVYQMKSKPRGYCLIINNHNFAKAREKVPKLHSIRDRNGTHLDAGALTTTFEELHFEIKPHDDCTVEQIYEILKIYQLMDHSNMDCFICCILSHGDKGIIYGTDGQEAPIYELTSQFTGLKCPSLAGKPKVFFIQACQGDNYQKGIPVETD
T5 sequence (Q14790 385-479 limits assumed): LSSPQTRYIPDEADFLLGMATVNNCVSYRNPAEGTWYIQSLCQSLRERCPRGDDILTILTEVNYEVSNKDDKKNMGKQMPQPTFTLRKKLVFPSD

(S)-1-(4-Methoxybenzyl)-5-(2-phenoxymethyl-pyrrolidine-1-sulfonyl)-1H-indole-2,3-dione [Compound 11b]
IC50 (caspase 1; Table 4, read-out: IC50 (nM) caspase-1): > 10000 nM | IC50 (caspase-3; [1]): 14.5 ± 1.6 nM | IC50 (caspase 7; [2]): 21.8 ± 3.5 nM | IC50 (caspase 6; Table 4, read-out: IC50 (nM) caspase-6): > 5000 nM | IC50 (caspase 8; Table 4, read-out: IC50 (nM) caspase-8): > 50000 nM

N#CC(C#N)=C1C(=O)N(Cc2ccc(Br)cc2)c2ccc(S(=O)(=O)N3CCCC3COc3ccccc3)cc21 (stereo not drawn) [Compound 27d, 2-[1-(4-Bromo-benzyl)-2-oxo-5-(2-phenoxymethyl-pyrrolidine-1-sulfonyl)-1,2-dihydro-indol-3-yl-idene]-malononitrile]
IC50 (caspase 1; [3]): 5700 nM | IC50 (caspase 1; [4]): 5700 ± 850 nM | IC50 (caspase-3; [5]): 20.1 ± 1.3 nM | IC50 (caspase-3; [6]): 20.1 ± 1.3 nM | IC50 (caspase-3; read-out: IC50 for caspase-3): 20.1 nM | IC50 (caspase 7; [7]): 92.2 ± 11.8 nM | IC50 (caspase 7; [8]): 92.2 ± 11.8 nM | IC50 (caspase 7; read-out: IC50 for caspase-7): 92.2 nM | IC50 (caspase 6; [9]): 840 ± 125 nM | IC50 (caspase 6; [10]): 840 ± 125 nM | IC50 (caspase 8; [11]): > 50000 nM | IC50 (caspase 8; [12]): > 50000 nM

COc1ccc(CN2C(=O)C(=CC#N)c3cc(S(=O)(=O)N4CCC[C@H]4COc4ccccc4)ccc32)cc1 [WC-II-99]
IC50 (caspase-3; [5]): > 1000 nM | potency as caspase-3/7 inhibitors (in words) (caspase-3): low potency

N#CC(C#N)=C1C(=O)N(Cc2ccccc2)c2ccc(S(=O)(=O)N3CCCC3COc3ccccc3)cc21 (stereo not drawn) [Compound 27b, 2-[1-Benzyl-2-oxo-5-(2-phenoxymethyl-pyrrolidine-1-sulfonyl)-1,2-dihydroindol-3-yl-idene]-malononitrile]
IC50 (caspase 1): 6220 nM | IC50 (caspase-3; IC50 (nM) Casp-3, Table 7): 27.8 ± 2.5 nM | IC50 (caspase-3; IC50 (nM) Caspase 3, Table 2): 27.8 ± 2.5 nM | IC50 (caspase-3; IC50 for caspase-3): 27.8 nM | IC50 (caspase 7; IC50 (nM) Casp-7, Table 7): 51.7 ± 6.2 nM | IC50 (caspase 7; IC50 (nM) Caspase 7, Table 2): 51.7 ± 6.2 nM | IC50 (caspase 7; IC50 for caspase-7): 51.7 nM | IC50 (caspase 6): 918 ± 151 nM | IC50 (caspase 8; [11]): > 50000 nM | IC50 (caspase 8; [12]): > 50000 nM

CC[C@H](C)[C@H](NC(C)=O)C(=O)N[C@@H](CCC(=O)O)C(=O)N[C@H](C(=O)N[C@H](C=O)CC(=O)O)[C@@H](C)O [Ac-IETD-CHO, reference compound] (Ac-IETD-aldehyde)
IC50 (caspase 8; [13]): 4.7 ± 0.9 nM | IC50 (caspase 8; [11]): 4 ± 0.1 nM

CC(=O)N[C@@H](CC(=O)O)C(=O)N[C@@H](CCC(=O)O)C(=O)N[C@H](C(=O)N[C@H](C=O)CC(=O)O)C(C)C [Ac-DEVD-CHO, reference compound]
IC50 (caspase 7; [14]): 8.5 ± 1 nM | IC50 (caspase 7; [7]): 8 ± 1 nM

CN1C(=O)C(=C(C#N)C#N)c2cc(S(=O)(=O)N3CCCC3COc3ccccc3)ccc21 (stereo not drawn) [Compound 27a, 2-[1-Methyl-2-oxo-5-(2-phenoxymethyl-pyrrolidine-1-sulfonyl)-1,2-dihydro-indol-3-yl-idene]-malononitrile]
IC50 (caspase 1; [3]): 2820 nM | IC50 (caspase 1; [4]): 2820 ± 248 nM | IC50 (caspase-3; [5]): 119 ± 4 nM | IC50 (caspase-3; [6]): 119 ± 4 nM | IC50 (caspase 7; [7]): 785 ± 276 nM | IC50 (caspase 7; [8]): 785 ± 276 nM | IC50 (caspase 6; [9]): 698 ± 94 nM | IC50 (caspase 6; [10]): 698 ± 94 nM | IC50 (caspase 8; [11]): > 50000 nM | IC50 (caspase 8; [12]): > 50000 nM

O=C1Nc2ccc(S(=O)(=O)N3CCCC3COc3cccnc3)cc2C1=O (stereo not drawn) [Compound 20, 5-(2-(Pyridin-3-yl-oxymethyl)-pyrrolidine-1-sulfonyl)-1H-indole-2,3-dione]
IC50 (caspase 1; [15]): > 5000 nM | IC50 (caspase-3; [16]): 58.3 ± 7.6 nM | IC50 (caspase 7; [17]): 215 ± 49.5 nM | IC50 (caspase 6; [18]): > 5000 nM | IC50 (caspase 8): > 50000 nM

O=C1C(=O)N(Cc2ccc(OCCF)cc2)c2ccc(S(=O)(=O)N3CC[C@H]3COc3cccnc3)cc21 [WC-II-101]
IC50 (caspase 1; [19]): > 10000 nM | IC50 (caspase-3; [20]): 3.6 ± 0.5 nM | IC50 (caspase 7; [14]): 17.6 ± 0.4 nM | IC50 (caspase 6; [21]): 8700 nM | IC50 (caspase 8; [13]): > 50000 nM

O=C1C(=O)N(Cc2ccc(O)cc2)c2ccc(S(=O)(=O)N3CCC[C@H]3COc3ccccc3)cc21 [Compound 11f, (S)-1-(4-Hydroxybenzyl)-5-(2-phenoxymethyl-pyrrolidine-1-sulfonyl)-1H-indole-2,3-dione]
IC50 (caspase-3; [1]): 13.5 ± 2.4 nM | IC50 (caspase 7; [2]): 44 ± 0.1 nM

N#CC(C#N)=C1C(=O)N(Cc2ccc(OCCF)cc2)c2ccc(S(=O)(=O)N3CCC[C@H]3COc3ccccc3)cc21 [WC-II-92]
IC50 (caspase 1; [3]): 10000 nM | IC50 (caspase-3; [5]): 18.3 ± 0.4 nM | IC50 (caspase 7; [7]): 96.3 ± 20.7 nM | IC50 (caspase 6; [9]): 927 ± 35 nM | IC50 (caspase 8; [11]): > 50000 nM

O=C1Nc2ccc(S(=O)(=O)N3CCCC3COc3ccncc3)cc2C1=O (stereo not drawn) [Compound 23, 5-(2-(Pyridin-4-yl-oxymethyl)-pyrrolidine-1-sulfonyl)-1H-indole-2,3-dione]
IC50 (caspase 1; [15]): > 5000 nM | IC50 (caspase-3; [16]): 20.4 ± 1.7 nM | IC50 (caspase 7; [17]): 142 ± 22.6 nM | IC50 (caspase 6; [18]): > 5000 nM | IC50 (caspase 8; Table 6, read-out: IC50 (nM) caspase-8): > 50000 nM

O=C1C(=O)N(Cc2ccc(OCCF)cc2)c2ccc(S(=O)(=O)N3CCCC3COc3ccccc3)cc21 (stereo not drawn) [WC-II-89, 1-[4-(2-Fluoroethoxy)-benzyl]-5-(2-phenoxymethyl-pyrrolidine-1-sulfonyl)-1H-indole-2,3-dione]
IC50 (caspase 1; [19]): > 15000 nM | IC50 (caspase-3; [20]): 9.7 ± 1.3 nM | IC50 (caspase 6; [21]): 3720 nM | IC50 (caspase 8; [13]): > 50000 nM

O=C1Nc2ccc(S(=O)(=O)N3CCC[C@H]3COc3ccccc3)cc2C1=O [Compound 10, (S)-5-(2-Phenoxymethyl-pyrrolidine-1-sulfonyl)-1H-indole-2,3-dione]
IC50 (caspase-3; [1]): 240 ± 10 nM | IC50 (caspase 7; [2]): 540 ± 56.6 nM

O=C1Nc2ccc(S(=O)(=O)N3CCC[C@H]3COc3ccccc3)cc2C1=NO [WC(II)-51]
potency as caspase-3/7 inhibitors (in words) (caspase-3): low potency

O=C1C(=O)N(Cc2ccc(F)nc2)c2ccc(S(=O)(=O)N3CCC[C@H]3COc3ccccc3)cc21 [Compound 11g, (S)-1-(6-Fluoropyridin-3-yl-methyl)-5-(2-phenoxymethylpyrrolidine-1-sulfonyl)-1H-indole-2,3-dione]
IC50 (caspase-3; [1]): 10.3 ± 1.5 nM | IC50 (caspase 7; [2]): 14.5 ± 0.9 nM

O=C1C(=O)N(Cc2ccc(Br)cc2)c2ccc(S(=O)(=O)N3CCCC3COc3cccnc3)cc21 (stereo not drawn) [Compound 28c, 1-(4-Bromo-benzyl)-5-[2-(pyridin-3-yl-oxymethyl)-pyrrolidine-1-sulfonyl]-1H-indole-2,3-dione]
IC50 (caspase 1; [19]): > 15000 nM | IC50 (caspase 1; [4]): > 15000 nM | IC50 (caspase-3; IC50 (nM) Casp-3, Table 7): 3.6 ± 0.5 nM | IC50 (caspase-3; IC50 (nM) Caspase 3, Table 1): 3.6 ± 0.5 nM | IC50 (caspase 7; IC50 (nM) Casp-7, Table 7): 6.6 ± 0.1 nM | IC50 (caspase 7; IC50 (nM) Caspase 7, Table 1): 6.6 ± 0.1 nM | IC50 (caspase 8; [13]): > 50000 nM | IC50 (caspase 8; [12]): > 50000 nM

CC(=O)N[C@@H](Cc1ccc(O)cc1)C(=O)N[C@H](C(=O)N[C@@H](C)C(=O)N[C@H](C=O)CC(=O)O)C(C)C [Ac-YVAD-CHO, reference compound]
IC50 (caspase 1; [19]): 8.1 ± 2.1 nM | IC50 (caspase 1; [3]): 8.1 ± 2.1 nM
